This passage reports IC50 results from the Kinase Knowledgebase extract (Sharma et al. 2016).

Assay [1] concerns the target EGFR (human) (UniProt P00533). The conditions noted are these: sf-539.
Assay [2] has as its target EGFR (human) (UniProt P00533). The settings on record: uacc-62.
The target in assay [3] is EGFR (human) (UniProt P00533). The settings on record: ovcar-3.
Assay [4] has as its target EGFR (human) (UniProt P00533). The conditions noted are these: sn12c.
The target in assay [5] is EGFR (human) (UniProt P00533). The conditions noted are these: du-145.
The target of assay [6] is EGFR (human) (UniProt P00533). The settings on record: hop-62.
For assay [7], the target named is EGFR (human) (UniProt P00533). The conditions noted are these: mda-mb-435.
Assay [8] concerns the target EGFR (human) (UniProt P00533). The conditions noted are these: mcf-7.
In assay [9] the target is EGFR (human) (UniProt P00533). The conditions noted are these: ccrf-cem.
Assay [10] deals with EGFR (human) (UniProt P00533). The conditions noted are these: hct-116.
The next assay deals with EGFR (mouse) (UniProt P00533). The conditions noted are these: baf3.

SMILES strings stand for the structures. A value given as a limit tells only on which side of the number the result lay.

EGFR (human), sequence (P00533 whole entry, looked up): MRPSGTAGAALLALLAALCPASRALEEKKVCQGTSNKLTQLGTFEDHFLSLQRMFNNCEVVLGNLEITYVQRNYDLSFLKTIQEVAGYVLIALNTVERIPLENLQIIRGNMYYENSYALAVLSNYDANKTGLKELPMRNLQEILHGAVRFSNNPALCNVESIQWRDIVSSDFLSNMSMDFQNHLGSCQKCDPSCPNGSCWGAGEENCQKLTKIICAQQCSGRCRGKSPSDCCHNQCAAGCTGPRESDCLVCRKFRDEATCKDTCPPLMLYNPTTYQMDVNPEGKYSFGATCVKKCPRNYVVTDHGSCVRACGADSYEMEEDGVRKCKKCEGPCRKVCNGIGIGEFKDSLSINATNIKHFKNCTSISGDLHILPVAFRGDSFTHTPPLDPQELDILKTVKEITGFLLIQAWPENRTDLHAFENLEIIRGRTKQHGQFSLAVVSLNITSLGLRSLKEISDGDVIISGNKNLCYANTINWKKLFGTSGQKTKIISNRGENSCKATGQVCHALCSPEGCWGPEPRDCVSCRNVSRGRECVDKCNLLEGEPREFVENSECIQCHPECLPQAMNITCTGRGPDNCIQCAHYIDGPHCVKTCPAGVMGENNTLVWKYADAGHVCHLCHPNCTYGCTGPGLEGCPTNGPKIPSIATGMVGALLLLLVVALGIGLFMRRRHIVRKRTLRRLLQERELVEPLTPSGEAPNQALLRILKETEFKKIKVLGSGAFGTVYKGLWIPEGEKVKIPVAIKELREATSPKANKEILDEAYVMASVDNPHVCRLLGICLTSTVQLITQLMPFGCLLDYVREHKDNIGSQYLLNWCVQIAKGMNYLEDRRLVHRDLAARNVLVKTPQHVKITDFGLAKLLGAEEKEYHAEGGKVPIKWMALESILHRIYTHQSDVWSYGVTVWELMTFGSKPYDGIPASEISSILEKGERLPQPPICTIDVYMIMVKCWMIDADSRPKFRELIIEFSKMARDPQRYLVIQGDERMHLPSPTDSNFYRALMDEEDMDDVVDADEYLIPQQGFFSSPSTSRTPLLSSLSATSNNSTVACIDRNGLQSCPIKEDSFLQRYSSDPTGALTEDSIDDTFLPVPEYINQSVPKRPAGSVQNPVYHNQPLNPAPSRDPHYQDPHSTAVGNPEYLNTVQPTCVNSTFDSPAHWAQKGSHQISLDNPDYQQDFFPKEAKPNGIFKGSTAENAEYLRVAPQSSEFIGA

For orientation: IC50 means the concentration needed to halve the response being measured. Read a high IC50 as weaker potency in that assay. In the case of `O=C(NCCc1ccc(O)cc1)c1cc(NCc2cc(O)ccc2O)ccc1O`, the IC50 at EGFR (human) [1] is 2.5 µM; against EGFR (human) [2], 18 µM; against EGFR (human) [3], 62 µM; at EGFR (human) [4], 19 µM; against EGFR (human) [5], 17 µM; at EGFR (human) [6] it was 2.5 µM. The same compound returned a concentration for half-maximal inhibition (IC50) against EGFR (human) [7] of 23 µM.

For `CC(C)CCCC(C)[C@H]1CCC2C3CCC4C[C@@H](NC(=O)c5cc(NCc6cc(O)ccc6O)ccc5O)CC[C@]4(C)C3CC[C@@]21C` (stereo partly drawn), the IC50 at EGFR (human) [8] is > 50 µM.

As for `CCCCCCCCCCCCNC(=O)c1cc(NCc2cc(O)ccc2O)ccc1O`, the IC50 against EGFR (human) [1] is 20 µM; against EGFR (human) [2], 3.2 µM; at EGFR (human) [9], 340 nM; against EGFR (human) [3], 1.9 µM; at EGFR (human) [10], 2.1 µM; against EGFR (human) [4] it was 2.6 µM. Further, the IC50 against EGFR (human) [5] came out at 11 µM; against EGFR (human) [6] it was 3.8 µM; at EGFR (human) [7] it was 3.2 µM.

Regarding `CCCCCCNC(=O)c1cc(NCc2cc(O)ccc2O)ccc1O`, the IC50 turned out to be 2.3 µM against EGFR (human) [1]; 12 µM against EGFR (human) [2]; 560 nM at EGFR (human) [9]; 4 µM at EGFR (human) [3]; 17 µM at EGFR (human) [10]; 6.1 µM against EGFR (human) [4]. For the same compound, the 50% inhibitory concentration (IC50) on EGFR (human) [5] is 15 µM; against EGFR (human) [6] it was 19 µM; on EGFR (human) [7] it was 15 µM.

Regarding `O=C(NCCN1CCOCC1)c1cc(NCc2cc(O)ccc2O)ccc1O`, the 50% inhibitory concentration (IC50) was 19 µM against EGFR (human) [1]; 17 µM at EGFR (human) [2]; 1800 nM against EGFR (human) [9]; > 50 µM with EGFR (mouse); 87 µM against EGFR (human) [3]; 20 µM against EGFR (human) [10]. For the same compound, the IC50 was determined as 22 µM against EGFR (human) [4], 17 µM on EGFR (human) [5] and 13 µM at EGFR (human) [7].

Turning to `O=C(NCCc1ccccc1)c1cc(NCc2cc(O)ccc2O)ccc1O`, the IC50 stood at 17 µM against EGFR (human) [1]; 14 µM against EGFR (human) [2]; 2700 nM against EGFR (human) [9]; 7.7 µM against EGFR (human) [3]; 18 µM against EGFR (human) [10]; 18 µM against EGFR (human) [4]. The values for the half-inhibitory concentration (IC50) against EGFR (human) [5], against EGFR (human) [6] and at EGFR (human) [7] were 16 µM, 20 µM and 19 µM, respectively.

As for `O=C(NCCc1ccc(Br)cc1)c1cc(NCc2cc(O)ccc2O)ccc1O`, the 50% inhibitory concentration (IC50) was 15.8 µM against EGFR (human) [1]; 8.6 µM on EGFR (human) [2]; 7.6 µM at EGFR (human) [10]; 16 µM against EGFR (human) [5]; 18 µM on EGFR (human) [6]; 10 µM against EGFR (human) [7].

Turning to `O=C(NCCc1ccccn1)c1cc(NCc2cc(O)ccc2O)ccc1O`, the half-inhibitory concentration (IC50) worked out at 29 µM against EGFR (human) [1]; 17 µM on EGFR (human) [2]; 1000 nM at EGFR (human) [9]; 17 µM against EGFR (human) [3]; 17 µM at EGFR (human) [10]; 19 µM at EGFR (human) [4]. The IC50 was determined as 17 µM at EGFR (human) [5], 20 µM at EGFR (human) [6] and 13 µM against EGFR (human) [7].

Turning to `O=C(NCCc1ccc(F)cc1)c1cc(NCc2cc(O)ccc2O)ccc1O`, the 50% inhibitory concentration (IC50) turned out to be 9.2 µM against EGFR (human) [1]; 7.8 µM against EGFR (human) [2]; 290 nM against EGFR (human) [9]; 11 µM at EGFR (human) [3]; 9.2 µM on EGFR (human) [10]; 7.7 µM on EGFR (human) [4]. The IC50 was 18 µM on EGFR (human) [5] and 13 µM against EGFR (human) [7].

Regarding `O=C(NCc1ccccc1)c1ccc(NCc2cc(O)ccc2O)cc1`, the IC50 was 9.7 µM at EGFR (human) [1]; 12 µM against EGFR (human) [2]; 2700 nM at EGFR (human) [9]; > 100 µM in the assay with EGFR (mouse); 6.8 µM on EGFR (human) [3]; 10 µM against EGFR (human) [10]. Besides, the IC50 against EGFR (human) [4] turned out to be 9.7 µM; on EGFR (human) [5], 15 µM; on EGFR (human) [6] it was 20 µM; at EGFR (human) [7], 12 µM.

As to `O=C(NCCc1ccccc1)c1cccc(NCc2cc(O)ccc2O)c1`, the IC50 on EGFR (human) [1] is 15 µM; at EGFR (human) [2] it was 13 µM; against EGFR (human) [9] it was 4400 nM; against EGFR (human) [3], 2.8 µM; at EGFR (human) [10] it was 16 µM; on EGFR (human) [4] it was 13 µM. The 50% inhibitory concentration (IC50) against EGFR (human) [5] is 17 µM; against EGFR (human) [6] it was 3.8 µM; against EGFR (human) [7], 15 µM.

With `O=C(NCCc1ccc(Cl)cc1)c1cc(NCc2cc(O)ccc2O)ccc1O`, the IC50 against EGFR (human) [1] worked out at 8.4 µM; on EGFR (human) [9] it was 1600 nM; on EGFR (human) [3], 5.9 µM; against EGFR (human) [10] it was 15 µM; against EGFR (human) [4], 9.8 µM; at EGFR (human) [5] it was 16 µM. In addition, the IC50 on EGFR (human) [6] turned out to be 17 µM; on EGFR (human) [7] it was 20 µM.

As to `COc1ccc(CCNC(=O)c2cc(NCc3cc(O)ccc3O)ccc2O)cc1`, the concentration for half-maximal inhibition (IC50) on EGFR (human) [1] is 16 µM; against EGFR (human) [9], 3200 nM; with EGFR (mouse), > 100 µM; against EGFR (human) [3] it was 5.5 µM; against EGFR (human) [10] it was 23 µM; against EGFR (human) [4], 72 µM. For the same compound, the figures for the IC50 against EGFR (human) [5], on EGFR (human) [6] and against EGFR (human) [7] were 21 µM, 12 µM and 16 µM, respectively.

As to `O=C(NC1CCc2ccccc2C1)c1cc(NCc2cc(O)ccc2O)ccc1O` (stereo not drawn), the half-maximal inhibitory concentration (IC50) at EGFR (human) [1] turned out to be 2.7 µM; against EGFR (human) [2], 14 µM; against EGFR (human) [9] it was 1400 nM; at EGFR (human) [10], 16 µM; against EGFR (human) [4], 18 µM; on EGFR (human) [5], 17 µM. For the same compound, the 50% inhibitory concentration (IC50) is 17 µM against EGFR (human) [6] and 9.2 µM against EGFR (human) [7].

For the compound `O=C(NCCCc1ccccc1)c1ccc(NCc2cc(O)ccc2O)cc1`, the IC50 against EGFR (human) [1] stood at 3.4 µM; at EGFR (human) [2] it was 7.9 µM; on EGFR (human) [9], 830 nM; against EGFR (human) [10], 6.4 µM; against EGFR (human) [4], 3.2 µM; against EGFR (human) [5], 13 µM. The IC50 on EGFR (human) [6] was determined as 16 µM.

Turning to `O=C(NCCc1ccccc1)c1ccc(NCc2cc(O)ccc2O)cc1`, the 50% inhibitory concentration (IC50) is 8.5 µM against EGFR (human) [1]; 9.4 µM on EGFR (human) [2]; 590 nM against EGFR (human) [9]; > 200 µM with EGFR (mouse); 2.7 µM against EGFR (human) [3]; 7.4 µM on EGFR (human) [10]. The concentration for half-maximal inhibition (IC50) against EGFR (human) [4] worked out at 7.4 µM; at EGFR (human) [5] it was 14 µM; against EGFR (human) [6], 13 µM.

`O=C(NCc1ccccc1)c1cc(NCc2cc(O)ccc2O)ccc1O`: the 50% inhibitory concentration (IC50) amounted to 21 µM against EGFR (human) [1]; 15 µM against EGFR (human) [2]; 21 µM on EGFR (human) [3]; 12 µM against EGFR (human) [4]; 16 µM on EGFR (human) [5]; 23 µM against EGFR (human) [6]. At EGFR (human) [7], this compound yielded an IC50 of 30 µM.

For the compound `O=C(NCCCc1ccccc1)c1cc(NCc2cc(O)ccc2O)ccc1O`, the half-inhibitory concentration (IC50) at EGFR (human) [1] is 16 µM; against EGFR (human) [2] it was 14 µM; on EGFR (human) [9], 2400 nM; against EGFR (human) [3], 6.5 µM; against EGFR (human) [10], 24 µM; against EGFR (human) [4], 15 µM. In addition, the IC50 turned out to be 8.4 µM at EGFR (human) [5], 22 µM on EGFR (human) [6] and 18 µM at EGFR (human) [7].
